Assay results: patent US9676719B2, “Phenyl derivative” (ONO PHARMACEUTICAL CO., LTD., priority 2013, dated 2017)
Converted amounts (≈) assume the structure as drawn.

Legend:
Solubility measurement = assay type: physicochemical; conditions: aqueous buffer, kinetic from dmso stock; second solution of Japanese Pharmacopoeia (pH 6.8), room temperature, stirring 5 hours, LC-MS/MS
Procedure: A solution for obtaining a calibration curve was prepared by diluting a test substance (10 mmol/L, DMSO solution) in acetonitrile and adding acetonitrile containing an internal standard substance (warfarin) to adjust to 0.1, 0.4 and 2 μmol/L. A sample solution was prepared by adding to 495 μL (pH 6.8) of the second solution defined in Japanese Pharmacopoeia (a solution used was obtained by adding water to 250 mL of a 0.2 mol/L potassium dihydrogen phosphate reagent solution and 118 mL of a 0.2 mol/L sodium hydroxide reagent solution to adjust to 1000 mL) 5 μL of a test substance (10 mmol/L, DMSO solution), stirring at room temperature for 5 hours, transferring the obtained solution to a plate with a filter for vacuum filtration, diluting 20 μL of the filtrate with acetonitrile and adding acetonitrile containing the internal standard. The solution for obtaining a calibration curve and the sample solution (5 μL each) were injected to LC-MS/MS (Discovery Max from Thermo Scientific) for quantification (quantification range: 0.1 to 2 μmol/L). The solubility was calculated by multiplying the quantified value by 50. When the quantified value was outside of the quantification range, the solubility was expressed as <5 μmol/L or 100 μmol/L.

human S1P2 (EDG-5) = target: T1, human S1P2 (EDG-5) (Homo sapiens, UniProt O95136); test: S1P2 (EDG-5) antagonistic activity by monitoring the change in intracellular calcium ion concentration (human); assay type: cell-based; conditions: CHO cells overexpressing human S1P2 (EDG-5) gene; suppression of S1P (30 or 300 nM)-induced intracellular calcium increase, Fura2-AM
T1 construct: expressed in transfected cells; host or cells: CHO cells (G418 selection)
T1 sequence (O95136 whole entry): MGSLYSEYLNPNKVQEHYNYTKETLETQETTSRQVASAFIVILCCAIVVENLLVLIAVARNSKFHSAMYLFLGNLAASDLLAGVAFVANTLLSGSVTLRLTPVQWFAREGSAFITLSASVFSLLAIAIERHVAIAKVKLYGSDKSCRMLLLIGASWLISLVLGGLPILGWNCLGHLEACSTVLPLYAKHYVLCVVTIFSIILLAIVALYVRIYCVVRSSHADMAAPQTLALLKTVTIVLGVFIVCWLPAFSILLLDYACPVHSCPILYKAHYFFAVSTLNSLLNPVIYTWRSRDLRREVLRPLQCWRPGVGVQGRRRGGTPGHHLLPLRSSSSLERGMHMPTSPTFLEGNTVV
Procedure: (§1) Chinese hamster ovary (CHO) cells overexpressing the human S1P2 (EDG-5) gene were cultured in a Ham's F12 medium containing 10% fetal bovine serum (FBS), an antibiotic/antifungal agent and G418. CHO cells overexpressing the rat S1P2 (EDG-5) gene were cultured in a Ham's F12 medium containing 10% FBS, penicillin/streptomycin and blasticidin S. The cultured cells were incubated in a Fura2-AM solution (5 μM) [a Ham's F12 medium containing FBS (10%), HEPES buffer (20 mM, pH 7.2 to 7.5) and probenecid (2.5 mM)] at 37° C. for 60 minutes. The cells were washed twice with a Hanks' balanced saline containing HEPES buffer (20 mM, pH 7.2 to 7.5) and probenecid (2.5 mM) and immersed in the same solution. A plate was mounted on a fluorescence-based drug screening system and the intracellular calcium ion concentration was measured for 30 seconds without stimulation. A test substance (the final concentration of human S1P2: 0.25 nM to 25 μM and the final concentration of rat S1P2: 0.25 nM to 2.5 μM) or a dimethyl sulphoxide (DMSO) solution was added and after 3 minutes S1P (final concentration: 30 or 300 nM) was added and the increase in the intracellular calcium ion concentration before and after the addition of S1P was measured with an interval of 3 seconds (excitation wavelength: 340 nm and 380 nm, fluorescence wavelength: 540 nm).
(§2) The S1P2 (EDG-5) antagonistic activity was calculated as a suppression (%) from the following formula, wherein A is a control value which was a peak value after addition of S1P (final concentration: 30 or 300 nM) in the wells added with DMSO without a test substance and B is an increased amount after addition of S1P in the cells treated with the test substance: [M 1] Suppression (%)=[(A−B)/A]×100
(§3) Comparative compounds used were the compounds disclosed in Example 1 (64) (hereinafter referred to as comparative compound A) and Example 1 (85) (hereinafter referred to as comparative compound B) in Patent Document 3 (WO 2004/002531). The structural formulae of the comparative compounds are shown below respectively.

rat S1P2 (EDG-5) = target: T2, rat S1P2 (EDG-5) (Rattus norvegicus, UniProt P47752); test: S1P2 (EDG-5) antagonistic activity by monitoring the change in intracellular calcium ion concentration (rat); assay type: cell-based; conditions: CHO cells overexpressing rat S1P2 (EDG-5) gene; suppression of S1P (30 or 300 nM)-induced intracellular calcium increase, Fura2-AM
T2 construct: expressed in transfected cells; host or cells: CHO cells (blasticidin S selection)
T2 sequence (P47752 whole entry): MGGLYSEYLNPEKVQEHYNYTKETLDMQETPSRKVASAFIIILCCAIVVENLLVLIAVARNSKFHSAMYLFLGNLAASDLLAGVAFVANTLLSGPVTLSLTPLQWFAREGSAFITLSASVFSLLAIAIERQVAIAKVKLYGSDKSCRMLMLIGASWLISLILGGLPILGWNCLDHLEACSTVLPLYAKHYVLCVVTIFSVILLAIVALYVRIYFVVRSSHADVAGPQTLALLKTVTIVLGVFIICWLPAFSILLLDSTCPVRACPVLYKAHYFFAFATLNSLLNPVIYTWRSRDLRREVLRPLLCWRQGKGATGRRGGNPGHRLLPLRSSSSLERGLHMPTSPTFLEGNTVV
Procedure: as §1, §2, §3

Row | SMILES | solubility at 5 h (Solubility measurement) [µM] | IC50 (human S1P2 (EDG-5)) [nM] | IC50 (rat S1P2 (EDG-5)) [nM]
1 | CCC(CC)CC1(O)CCN(C(=O)Nc2cc(F)cc(C(F)(F)F)c2)CC1 [Comparative compound A, reference compound] | < 5 | – | –
2 | CCC(CC)CC1(O)CCN(C(=O)Nc2cccc(Oc3ccc(F)cc3)c2)CC1 [Comparative compound B, reference compound] | < 5 | 1200 | 27

Continued, values first:

Row | solubility at 5 h (Solubility measurement) [µM] | IC50 (human S1P2 (EDG-5)) [nM] | IC50 (rat S1P2 (EDG-5)) [nM] | SMILES
3 | 72 (≈ 41 µg/mL) | 4.6 | 9.4 | CS(=O)(=O)NC(=O)c1ccc(Oc2cc(NC(=O)N3CCC(O)(C4CCCC4)CC3)cc(C(F)(F)F)c2)cc1 [Example 5 (1), 4-cyclopentyl-4-hydroxy-N-[3-{4-[(methylsulphonyl)carbamoyl]phenoxy}-5-(trifluoromethyl)phenyl]-1-piperidine carboxamide]
4 | 74 (≈ 41.5 µg/mL) | 8.4 | 5.1 | O=C(Nc1cc(Oc2ccc(C3(C(=O)O)CCCC3)cc2)cc(C(F)(F)F)c1)N1CCC(O)(C2CCCCC2)C1 (stereo not shown) [Example 5 (7), 1-{4-[3-{[(3-cyclohexyl-3-hydroxy-1-pyrrolidinyl)carbonyl]amino}-5-(trifluoromethyl)phenoxy]phenyl}cyclopentanecarboxylic acid]
5 | 90 (≈ 49.6 µg/mL) | 7.3 | 3 | CC(C)CC1(O)CCN(C(=O)Nc2cc(C(=O)Oc3ccc(C(C)(C)C(=O)O)cc3)cc(C(F)(F)F)c2)CC1 [Example 8, 2-(4-{[3-{[(4-hydroxy-4-isobutyl-1-piperidinyl)carbonyl]amino}-5-(trifluoromethyl)benzoyl]oxy}phenyl)-2-methylpropanoic acid]
